Experimental data as given in US20230339915A1 (Vertex Pharmaceuticals Incorporated, priority 2020, published 2023).

What was measured:
[1] = biological target: NL20 human bronchial epithelial cells expressing human Z-AAT (Homo sapiens (Human), UniProt P01009, E366K); assay: AAT Function Assay (MSD Assay NL20-SI Cell Line); type: cell-based; details: functionally active AAT (AAT-hNE complex, MSD) in supernatant of NL20 cells expressing human Z-AAT; read-out: NL20 Functional EC50
In short: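 NL20 bronchial epithelial cells expressing Z-AAT, induced with 0.1 μM doxycycline, were treated with compound overnight. Functional AAT in supernatant was measured by complex formation with excess human neutrophil elastase, captured on anti-AAT plates, detected with Sulfo-tagged anti-elastase on MSD, and quantified against M-AAT standards (0.156–320 ng/mL).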

[2] = biological target: purified Z-AAT protein from human plasma (Homo sapiens (Human), UniProt P01009, E366K); assay: Biochemical Assay (Z-AAT Elastase Activity Assay); details: purified Z-AAT pre-incubated with compound 1 hour, then human neutrophil elastase and fluorescent substrate
Chain of purified Z-AAT protein from human plasma (P01009 25-418 E366K limits assumed): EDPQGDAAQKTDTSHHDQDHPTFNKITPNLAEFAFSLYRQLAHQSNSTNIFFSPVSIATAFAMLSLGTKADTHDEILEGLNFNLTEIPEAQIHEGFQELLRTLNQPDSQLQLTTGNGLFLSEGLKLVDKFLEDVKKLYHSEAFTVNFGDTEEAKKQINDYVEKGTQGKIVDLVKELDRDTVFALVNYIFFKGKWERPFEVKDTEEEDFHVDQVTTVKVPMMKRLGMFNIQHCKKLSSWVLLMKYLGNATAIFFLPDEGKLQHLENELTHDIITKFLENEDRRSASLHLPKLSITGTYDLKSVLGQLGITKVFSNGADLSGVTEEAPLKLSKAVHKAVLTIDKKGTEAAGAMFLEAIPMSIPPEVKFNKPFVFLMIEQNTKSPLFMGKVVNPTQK
In short: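 Purified plasma Z-AAT (20 nM) preincubated with compounds 1 h at room temperature, then 3 nM human neutrophil elastase added in PBS + 0.01% BRIJ35 for 30 min to form suicide complex. Residual elastase activity read immediately by fluorescence after adding 300 μM MeOSuc-AAPV-AMC substrate solution.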

Chain of NL20 human bronchial epithelial cells expressing human Z-AAT (P01009 25-418 E366K limits assumed): as above

Row | Structure (SMILES) | EC50 [1] | IC50 [2]
1 | CO[C@]1(C(=O)O)C[C@@H](c2c(C3CCOCC3)n(-c3ccc(F)c(C)c3)c3ccc(O)cc32)C1 [Compound 16] | > 2000 nM | > 30000 nM
2 | Cc1cc(-n2c(C(C)C)c([C@H]3C[C@H](C(=O)O)C3)c3c(F)c(O)ccc32)ccc1F [Compound 89] | 500 to 2000 nM | 2000 to 5000 nM
3 | Cc1cc(-n2c(C(C)C)c([C@H]3C[C@@H](C(=O)O)C3)c3cc(O)ccc32)ccc1F [Compound 146] | 500 to 2000 nM | > 30000 nM
4 | CC(C)c1c([C@H]2CC3(C[C@H](C(=O)O)C3)C2)c2cc(O)ccc2n1-c1ccc(F)c(F)c1 (some centres unmarked) [Compound 57] | < 500 nM | < 2000 nM
5 | O=C(O)[C@H]1C[C@@H](c2c(C3CCOCC3)n(-c3ccc(F)c(Cl)c3)c3ccc(O)cc32)C1 [Compound 115] | > 2000 nM | > 30000 nM
6 | Cc1cc(-n2c(C(C)C)c([C@@H]3COCC3C(=O)O)c3cc(O)ccc32)ccc1F (mixture of isomers) [Compound 82] | > 2000 nM | > 30000 nM
7 | COCC(C)(C)c1c(CC2(C(=O)O)CC2)c2cc(O)ccc2n1-c1ccc(F)c(C)c1 [Compound 81] | 500 to 2000 nM | > 30000 nM
8 | Cc1cc(-n2c(C(C)C)c(CC(C)C(=O)O)c3cc(O)ccc32)ccc1F (single isomer, unassigned) [Compound 101] | > 2000 nM | > 30000 nM
9 | Cc1cc(-n2c(C(C)C)c([C@H]3C[C@@H](C(=O)O)C3)c3cc(O)c(F)cc32)ccc1F [Compound 69] | > 2000 nM | > 5000 nM
10 | Cc1cc(-n2c(C3CCOCC3)c(CC3(C(=O)O)CCC3)c3cc(O)ccc32)ccc1F [Compound 13] | > 2000 nM | > 30000 nM
11 | Cc1cc(-n2c(C3CCOCC3)c([C@H]3CC[C@@H](C(=O)O)CC3)c3cc(O)ccc32)ccc1F [Compound 55] | > 2000 nM | > 30000 nM
12 | CCC(C(=O)O)c1c(C)n(-c2ccc(F)c(C)c2)c2ccc(O)cc12 (centres unmarked) [Compound 158] | > 2000 nM | > 30000 nM
13 | CO[C@]1(C(=O)O)C[C@H](c2c(C(C)C)n(-c3ccc(F)c(C)c3)c3ccc(O)cc32)C1 [Compound 66] | 500 to 2000 nM | > 30000 nM
14 | Cc1cc(-n2c(C(C)C)c(CC(=O)O)c3cc(O)ccc32)ccc1F [Compound 153, 2-(1-(4-fluoro-3-methylphenyl)-5-hydroxy-2-isopropyl-1H-indol-3-yl)acetic acid] | > 2000 nM | > 30000 nM
15 | Cc1cc2c(cc1O)c(C#N)c(C)n2-c1ccc(F)c(C)c1 [Compound 210] | > 2000 nM | > 30000 nM
16 | Cc1cc(-n2c(C(C)C)c(CC(C)C(=O)O)c3cc(O)ccc32)ccc1F (centres unmarked) [Compound 26] | > 2000 nM | > 30000 nM
17 | N#Cc1c(C2CC2)n(-c2ccc(F)cc2)c2ccc(O)cc12 [Compound 203] | < 500 nM | > 30000 nM
18 | Cc1cc(-n2c(C3CCOCC3)c([C@H]3CC4(C[C@H](C(=O)O)C4)C3)c3cc(O)ccc32)ccc1F (some centres unmarked) [Compound 11] | < 500 nM | > 30000 nM
19 | CCCn1c(C(C)C)c(C#N)c2cc(O)ccc21 [Compound 204, 5-hydroxy-2-isopropyl-1-propyl-1H-indole-3-carbonitrile] | > 2000 nM | > 30000 nM
20 | O=C(O)C1CC2(C1)CC(c1c(C3CCOCC3)n(-c3ccccc3)c3ccc(O)cc13)C2 (centres unmarked) [Compound 54] | > 2000 nM | > 30000 nM
21 | Cc1cc(-n2c(C3CCOCC3)c(-c3ccc(C(=O)O)cc3)c3cc(O)ccc32)ccc1F [Compound 166, 4-(1-(4-fluoro-3-methylphenyl)-5-hydroxy-2-(tetrahydro-2H-pyran-4-yl)-1H-indol-3-yl)benzoic acid] | > 2000 nM | > 30000 nM
22 | O=C(O)[C@]1(C(F)(F)F)C[C@@H](c2c(C3CCOCC3)n(-c3ccc(F)c(F)c3)c3ccc(O)cc32)C1 [Compound 53] | > 2000 nM | > 30000 nM
23 | O=C(O)[C@H]1CC2(C1)C[C@H](c1c(C3CCOCC3)n(-c3ccc(F)c(Cl)c3)c3ccc(O)cc31)C2 (some centres unmarked) [Compound 32] | < 500 nM | > 5000 nM

Second part, the molecule after the results:

Row | EC50 [1] | IC50 [2] | Structure (SMILES)
24 | > 2000 nM | > 5000 nM | CC(C)c1c([C@H]2C[C@@H](C(=O)O)C2)c2cc(O)ccc2n1-c1ccc(F)c(Cl)c1 [Compound 78]
25 | > 2000 nM | > 30000 nM | Cc1cc(-n2c(C3CCS(=O)(=O)CC3)c([C@H]3C[C@@](C(=O)O)(C(F)(F)F)C3)c3cc(O)ccc32)ccc1F [Compound 43]
26 | < 500 nM | > 30000 nM | Cc1cc(-n2c(C(C)C)c(CCC(=O)O)c3cc(O)c(F)cc32)ccc1F [Compound 163, 3-(6-fluoro-1-(4-fluoro-3-methylphenyl)-5-hydroxy-2-isopropyl-1H-indol-3-yl)propanoic acid]
27 | > 2000 nM | > 30000 nM | Cc1cc(-n2c(C3CCOCC3)c([C@H]3C[C@H](c4nn[nH]n4)C3)c3cc(O)ccc32)ccc1F [Compound 218, 1-(4-fluoro-3-methyl-phenyl)-2-tetrahydropyran-4-yl-3-[3-(2H-tetrazol-5-yl)cyclobutyl]indol-5-ol]
28 | > 2000 nM | > 30000 nM | O=C(O)[C@H]1C[C@H](Cc2c(C3CCOCC3)n(-c3ccc(F)c(Cl)c3)c3ccc(O)cc23)C1 [Compound 34]
29 | > 2000 nM | > 5000 nM | Cc1cc(-n2c(C(C)C)c([C@@H]3COC[C@@H]3C#N)c3cc(O)ccc32)ccc1F [Compound 216]
30 | 500 to 2000 nM | 2000 to 5000 nM | Cc1cc(-n2c(C(C)C)c(-c3cncc(C(=O)O)c3)c3cc(O)ccc32)ccc1F [Compound 172]
31 | 500 to 2000 nM | > 5000 nM | O=C(O)[C@]1(C(F)(F)F)C[C@@H](c2c(C3CCOCC3)n(-c3ccc(F)c(Cl)c3)c3ccc(O)cc32)C1 [Compound 37]
32 | > 2000 nM | > 30000 nM | Cc1cc(-n2c(C(C)C)c(-c3cc(C(=O)O)[nH]n3)c3cc(O)ccc32)ccc1F [Compound 179, 3-[1-(4-fluoro-3-methyl-phenyl)-5-hydroxy-2-isopropyl-indol-3-yl]-1H-pyrazole-5-carboxylic acid]
33 | 500 to 2000 nM | > 5000 nM | C[C@]1(C(=O)O)C[C@H](c2c(C3CCOCC3)n(-c3ccc(F)c(Cl)c3)c3ccc(O)cc32)C1 [Compound 27]
34 | 500 to 2000 nM | > 30000 nM | O=C(O)[C@H]1CC2(C1)C[C@H](c1c(C3CCOCC3)n(-c3ccc(F)c(F)c3)c3ccc(O)cc31)C2 (some centres unmarked) [Compound 41]
35 | > 2000 nM | > 30000 nM | Cc1cc(-n2c(C(C)C)c(CC(C)(O)C(=O)O)c3cc(O)ccc32)ccc1F (centres unmarked) [Compound 152, 3-[1-(4-fluoro-3-methyl-phenyl)-5-hydroxy-2-isopropyl-indol-3-yl]-2-hydroxy-2-methyl-propanoic acid]
36 | > 2000 nM | > 30000 nM | Cc1cc(-n2c(C)c(C(C)C(=O)O)c3cc(O)ccc32)ccc1F (centres unmarked) [Compound 159]
37 | < 500 nM | < 2000 nM | COCC(C)(C)c1c(-c2ccc(C(=O)O)cc2)c2c(Cl)c(O)ccc2n1-c1ccc(F)cc1 [Compound 178, 4-[4-chloro-1-(4-fluorophenyl)-5-hydroxy-2-(2-methoxy-1,1-dimethyl-ethyl)indol-3-yl]benzoic acid]
38 | > 2000 nM | > 30000 nM | Cc1cc(-n2c(C3CCOCC3)c([C@H]3C[C@@H](C(=O)O)C3)c3cc(O)ccc32)ccc1F [Compound 21]
39 | > 2000 nM | > 5000 nM | Cc1c(C2(C#N)CC2)c2cc(O)ccc2n1-c1ccc(F)cc1 [Compound 184, 1-(1-(4-fluorophenyl)-5-hydroxy-2-methyl-1H-indol-3-yl)cyclopropane-1-carbonitrile]
40 | 500 to 2000 nM | > 30000 nM | O=C(O)[C@H]1CC2(C1)C[C@H](c1c(C3CCOCC3)n(-c3ccc(F)cc3)c3ccc(O)cc31)C2 (some centres unmarked) [Compound 50]
41 | > 2000 nM | > 30000 nM | Cc1cc(-n2c(C(C)C)c(C3CC(C(=O)O)C3)c3cc(O)ccc32)ccc1F (centres unmarked) [Compound 6]
42 | 500 to 2000 nM | > 30000 nM | N#Cc1c(C2CCC2)n(-c2ccc(F)cc2)c2ccc(O)cc12 [Compound 188]
43 | > 2000 nM | > 30000 nM | COC[C@]1(C(=O)O)C[C@@H](c2c(C3CCOCC3)n(-c3ccc(F)c(C)c3)c3ccc(O)cc32)C1 [Compound 121]
44 | 500 to 2000 nM | > 30000 nM | Cc1cc(-n2c(C3CCOCC3)c([C@H]3CC[C@H](C(=O)O)CC3)c3cc(O)ccc32)ccc1F [Compound 56]
45 | 500 to 2000 nM | 2000 to 5000 nM | Cc1cc(-n2c(C(C)C)c(C3CC4(C3)CC(F)(C(=O)O)C4)c3cc(O)ccc32)ccc1F (centres unmarked) [Compound 149, 2-fluoro-6-(1-(4-fluoro-3-methylphenyl)-5-hydroxy-2-isopropyl-1H-indol-3-yl)spiro[3.3]heptane-2-carboxylic acid]
46 | 500 to 2000 nM | > 30000 nM | CC(C)c1c([C@H]2C[C@@H]2C(=O)O)c2cc(O)c(F)cc2n1-c1ccc(F)cc1 [Compound 125]
47 | > 2000 nM | > 5000 nM | Cc1cc(-n2c(C(C)C)c([C@H]3C[C@@H](C(=O)NS(C)(=O)=O)C3)c3cc(O)ccc32)ccc1F [Compound 219, Cis-3-[1-(4-fluoro-3-methyl-phenyl)-5-hydroxy-2-isopropyl-indol-3-yl]-N-methylsulfonyl-cyclobutanecarboxamide]
48 | > 2000 nM | > 30000 nM | Cc1cc(-n2c(C3CC3)c(CC(=O)O)c3cc(O)ccc32)ccc1F [Compound 160]
49 | > 2000 nM | > 30000 nM | Cc1cc(-n2c(C(C)C)c([C@H]3C[C@@H](C(=O)O)C3)c3cc(O)ccc32)ccc1F [Compound 98]
